Experimental findings from article PMC12564946, “A Stable Delivery System for Meretrix meretrix Derived Immunomodulatory Peptide (QLNWD): Fabrication and Characterization of Glycosylated Protein Nanoparticle” (Marine Drugs, 2025) are described below.

Ends that are not written are not given here.

The nature of this data set: In vitro release of QLNWD, dialysis bag method in enzyme-free SGF/SIF. It counts as in vitro ADME. Particulars: 37 °C, 120 rpm. On the procedure: The release profile of QLNWD in NPs was evaluated according to a published dialysis method. A 2 mL aliquot of QLNWD (1 mg/mL) nanoparticle solution was introduced into a presoaked dialysis bag (molecular weight cutoff of 3500 Da). The bag was immersed in 20 mL of simulated gastric fluid (SGF, enzyme-free), which had been preheated at 37 °C for 30 min and adjusted to pH 2. The entire system was incubated at 37 °C under continuous agitation at 120 rpm. After 2 h, the pH was adjusted to 7.0, and 20 mL of simulated intestinal fluid (SIF, enzyme-free), also preheated at 37 °C for 30 min and adjusted to pH 7.0, was added to the system. At predetermined intervals, 1 mL of the release medium was sampled and immediately replenished with an equal volume of fresh SGF/SIF. Samples without QLNWD served as the blank control, and the cumulative release was determined as follows:(2) Cumulative release (%)=(V0Cn+Ve∑1n−1Cn−1)/total QLNWD content×100 where V0 refers to the total volume of simulated gastric or intestinal fluid, Cn refers to the concentration of QLNWD at the nth time, and Ve refers to the volume of each sample.

For QLNWD [QLNWD, Gln-Leu-Asn-Trp-Asp], the “Cumulative release of QLNWD” value by setting is: (12 h: 2 h enzyme-free SGF pH 2, then enzyme-free SIF pH 7.0, dialysis bag 3500 Da) 79.1%; (initial 2 h in enzyme-free SGF pH 2, dialysis bag 3500 Da, QLNWD 1 mg/mL) 38.1%.
